What was measured:
[1] = Assay (IV) determination of solubility; type: physicochemical; settings: for Solubility pH 6.5 Concentration (μM): pH 6.5, 18 hours room temperature; for Solubility pH 7.0 Concentration (μM): pH 7.0, 18 hours room temperature; for Solubility pH 7.5 Concentration (μM): pH 7.5, 18 hours room temperature; for Solubility pH 8.0 Concentration (μM): pH 8.0, 18 hours room temperature
Method: Assay (IV)—Determination of Solubility
The polypeptide was dissolved in water at ˜500 nmol/ml and mixed 1:1 with a series of buffers (100 mM glycylglycine pH 3.0, 100 mM glycylglycine pH 4.0, 100 mM glycylglycine pH 5.0, 100 mM bistrispropane pH 6.0, 100 mM bistrispropane pH 6.5, 100 mM bistrispropane pH 7.0, 100 mM bistrispropane pH 7.5, 100 mM bistrispropane pH 8.0). After 18 hours at room temperature the samples were centrifuged and the polypeptide concentration determined by UPLC.

[2] = molecular target: T1, human calcitonin receptor (Homo sapiens, UniProt P30988); assay: Assay (VII) binding to the human calcitonin receptor (SPA, 125I-Calcitonin); settings: read-out: hCTR bind IC50;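 further: cell membranes coupled to SPA beads, competitive displacement read by scintillation counting, IC50 derived from a one-site competition fit as a measure of receptor affinity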
T1 construct: expressed in transfected cells
T1 sequence (P30988 25-474): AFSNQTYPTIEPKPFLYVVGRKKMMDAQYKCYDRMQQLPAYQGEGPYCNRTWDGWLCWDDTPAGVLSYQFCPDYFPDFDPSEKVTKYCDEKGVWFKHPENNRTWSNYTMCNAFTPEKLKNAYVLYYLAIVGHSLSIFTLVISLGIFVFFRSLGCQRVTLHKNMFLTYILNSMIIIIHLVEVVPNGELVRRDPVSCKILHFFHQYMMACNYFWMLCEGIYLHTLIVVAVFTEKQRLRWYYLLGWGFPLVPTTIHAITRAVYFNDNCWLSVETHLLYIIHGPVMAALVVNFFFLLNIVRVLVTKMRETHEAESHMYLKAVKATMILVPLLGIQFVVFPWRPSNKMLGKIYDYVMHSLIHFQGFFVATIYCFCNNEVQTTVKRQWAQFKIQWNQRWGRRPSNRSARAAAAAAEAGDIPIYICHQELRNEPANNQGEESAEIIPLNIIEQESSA

[3] = molecular target: T2, human amylin receptor (amylin 3(a) receptor: human calcitonin receptor + RAMP-3) (Homo sapiens, UniProt O60896+P30988); assay: Assay (II)a functional assay, human amylin receptor (CRE luciferase, BHK cells); type: cell-based; settings: for EC50: functional assay, human amylin receptor, read-out: hAmylin-R funct. EC50
T2 construct: expressed in transfected cells
T2 sequence (P30988 25-474): T1 sequence (P30988 25-474)
T2 sequence (O60896 24-148 partner): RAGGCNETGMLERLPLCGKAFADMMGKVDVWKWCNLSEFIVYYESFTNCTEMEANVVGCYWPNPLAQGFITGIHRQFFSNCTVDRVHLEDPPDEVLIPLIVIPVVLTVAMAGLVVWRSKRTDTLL

[4] = molecular target: T1, human calcitonin receptor; assay: Assay (II)a functional assay, human calcitonin receptor (CRE luciferase, BHK cells);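 further: luminescence from a CRE-driven luciferase reporter, read by single photon counting after cells were exposed to test samples for 3 h at 37 °C under 5% CO2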; type: cell-based; settings: read-out: hCTR funct. EC50
human amylin receptor = molecular target: T3, human amylin receptor (Homo sapiens, UniProt O60896+P30988); assay: Assay (V) binding to the human amylin receptor (SPA, 125I-rat amylin); settings: human amylin receptor membranes, SPA; read-out: hAmylin-R bind IC50
T3 construct: expressed in transfected cells
T3 sequence (P30988 25-474): T1 sequence (P30988 25-474)
T3 sequence (O60896 24-148 partner): T2 sequence (O60896 24-148 partner)
How it was run: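 SPA competition binding on membranes from Amylin 3(a)/CRE-luc cells, 35 ng/μL membranes with 0.05 mg/well beads. Buffer 50 mM Hepes pH 7.4, 1 mM CaCl2, 5 mM MgCl2, 0.1% OA, 0.02% Tween20. IC50 from one-site competition fit as affinity measure.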

CC[C@H](C)[C@H](NC(=O)[C@H](C)NC(=O)CNC(=O)[C@H](Cc1ccccc1)NC(=O)[C@H](CC(N)=O)NC(=O)[C@@H]1CCCN1C(=O)[C@H](CO)NC(=O)[C@H](CO)NC(=O)[C@H](Cc1c[nH]cn1)NC(=O)[C@H](CCCNC(=N)N)NC(=O)[C@H](CC(C)C)NC(=O)[C@H](Cc1ccccc1)NC(=O)[C@H](CC(N)=O)NC(=O)[C@H](C)NC(=O)[C@H](CC(C)C)NC(=O)[C@H](CCCNC(=N)N)NC(=O)[C@H](CCC(N)=O)NC(=O)[C@@H](NC(=O)[C@H](C)NC(=O)[C@@H]1CSSC[C@H](NC(=O)[C@@H](N)CCCCNC(=O)CC[C@H](NC(=O)CCCCCCCCCCCCCCCCCCC(=O)O)C(=O)O)C(=O)N[C@@H](CC(N)=O)C(=O)N[C@@H]([C@@H](C)O)C(=O)N[C@@H](C)C(=O)N[C@@H]([C@@H](C)O)C(=O)N1)[C@@H](C)O)C(=O)N1CCC[C@H]1C(=O)N[C@@H](CO)C(=O)N[C@@H](CO)C(=O)N[C@H](C(=O)N[C@@H](CC(N)=O)C(=O)N[C@H](C(=O)NCC(=O)N[C@@H](Cc1c[nH]cn1)C(=O)N[C@@H](CC(N)=O)C(=O)N[C@H](C(=O)N[C@@H](Cc1ccc(O)cc1)C(N)=O)[C@@H](C)O)C(C)C)[C@@H](C)O [Example 77]
Solubility pH 6.5 Concentration (μM) [1]: ≧200 μM
Solubility pH 7.0 Concentration (μM) [1]: ≧200 μM
Solubility pH 7.5 Concentration (μM) [1]: 147 μM
Solubility pH 8.0 Concentration (μM) [1]: 59 μM
IC50 [2]: 50.7 nM
EC50 [3]: 0.145 nM
EC50 [4]: 5.4 nM
IC50 (human amylin receptor): 0.428 nM

CC[C@H](C)[C@H](NC(=O)[C@H](C)NC(=O)CNC(=O)[C@H](Cc1ccccc1)NC(=O)[C@H](CC(N)=O)NC(=O)[C@@H]1CCCN1C(=O)[C@H](CO)NC(=O)[C@H](CO)NC(=O)[C@H](Cc1c[nH]cn1)NC(=O)[C@H](CCCNC(=N)N)NC(=O)[C@H](CC(C)C)NC(=O)[C@H](Cc1ccccc1)NC(=O)[C@H](CC(N)=O)NC(=O)[C@H](C)NC(=O)[C@H](CC(C)C)NC(=O)[C@H](CCCNC(=N)N)NC(=O)[C@H](CCC(N)=O)NC(=O)[C@@H](NC(=O)[C@H](C)NC(=O)[C@@H]1CSSC[C@H](NC(=O)[C@@H](N)CCCCNC(=O)COCCOCCNC(=O)COCCOCCNC(=O)CC[C@H](NC(=O)CCCCCCCCCCCCCCCCCCC(=O)O)C(=O)O)C(=O)N[C@@H](CC(N)=O)C(=O)N[C@@H]([C@@H](C)O)C(=O)N[C@@H](C)C(=O)N[C@@H]([C@@H](C)O)C(=O)N1)[C@@H](C)O)C(=O)N1CCC[C@H]1C(=O)N[C@@H](CO)C(=O)N[C@@H](CO)C(=O)N[C@H](C(=O)N[C@@H](CC(N)=O)C(=O)N[C@H](C(=O)NCC(=O)N[C@@H](Cc1c[nH]cn1)C(=O)N[C@@H](CC(N)=O)C(=O)N[C@H](C(=O)N[C@@H](Cc1ccc(O)cc1)C(N)=O)[C@@H](C)O)C(C)C)[C@@H](C)O [Example 97]
Solubility pH 6.5 Concentration (μM) [1]: ≧200 μM
Solubility pH 7.0 Concentration (μM) [1]: ≧200 μM
Solubility pH 7.5 Concentration (μM) [1]: 88 μM
Solubility pH 8.0 Concentration (μM) [1]: 43 μM
IC50 [2]: 58.9 nM
Ratio hCT/hAmylin funct. ([3]; Table 6, human functional selectivity (hCTR EC50 / hAmylin-R EC50)): 33.0
Ratio hCT/hAmylin funct. ([3]; Table 6a, human functional selectivity (hCTR EC50 / hAmylin-R EC50), at least 5): 33.0
Ratio hCT/hAmylin funct. ([3]; Table 6j, hCTR funct. EC50 / hAmylin-R funct. EC50): 33.0
Ratio hCT/hAmylin funct. ([3]; Table 6k, hCTR funct. EC50 / hAmylin-R funct. EC50): 33.0
EC50 [3]: 0.356 nM
EC50 [4]: 11.7 nM
IC50 (human amylin receptor): 0.568 nM
